Measured values taken from patent publication US9833497B2, “Human originated EGF domain proteins and use of the same” (CHENGDU SOURCEBIO LIMITED-LIABILITY COMPANY, priority 2013, dated 2017).

Key:
Type in all cases: cell-based
E. coli DH5α = assay: Antibacterial activity: MIC and growth curve against E. coli DH5α in 96-well plate; conditions: minimal inhibitory concentration against E. coli DH5α; 96-well plate, 5×10^5 CFU/mL, 37° C., judged after 8 h
Method in brief: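 Log-phase bacteria (OD600 ~0.5) resuspended in LB at 5×10^5 CFU/mL, exposed to recombinant protein at 50, 25, 12.5 μg/mL final in triplicate, 37 °C shaking at 175 rpm. OD600 read every 30 min; MIC is lowest concentration showing no growth.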

E. coli BL21 = assay: MIC against Gram-negative bacteria: E. coli BL21
Method in brief: (§1)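 MIC = lowest concentration of recombinant protein showing no growth. Test proteins: purified human-derived EGF domain proteins, two-fold dilution series, three wells per concentration; inoculum 5×10^5 CFU/mL in LB; incubation 37° C with shaking at 175 rpm.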

Pseudomonas aeruginosa = assay: MIC against Gram-negative bacteria: Pseudomonas aeruginosa
Method in brief: as §1

Klebsiella pneumonia = assay: MIC against Gram-negative bacteria: Klebsiella pneumonia
Method in brief: as §1

Enterobacter cloacae = assay: MIC against Gram-negative bacteria: Enterobacter cloacae
Method in brief: as §1

Aeromonas hydrophila = assay: MIC against Gram-negative bacteria: Aeromonas hydrophila
Method in brief: as §1

Citrobacter diversus = assay: MIC against Gram-negative bacteria: Citrobacter diversus
Method in brief: as §1

Moraxella catarrhalis = assay: MIC against Gram-negative bacteria: Moraxella catarrhalis
Method in brief: as §1

Proteus mirabilis = assay: MIC against Gram-negative bacteria: Proteus mirabilis
Method in brief: as §1

Proteus vulgaris = assay: MIC against Gram-negative bacteria: Proteus vulgaris
Method in brief: as §1

Serratia marcescens = assay: MIC against Gram-negative bacteria: Serratia marcescens
Method in brief: as §1

[1] = 96-well plate, 5×10^5 CFU/mL, 37° C., 10 h
[2] = E. coli BL21, 10 h cultivation at 37° C., 5×10^5 CFU/mL
[3] = P. aeruginosa, 10 h cultivation at 37° C., 5×10^5 CFU/mL
[4] = K. pneumonia, 10 h cultivation at 37° C., 5×10^5 CFU/mL
[5] = E. cloacae, 10 h cultivation at 37° C., 5×10^5 CFU/mL
[6] = A. hydrophila, 10 h cultivation at 37° C., 5×10^5 CFU/mL
[7] = C. diversus, 10 h cultivation at 37° C., 5×10^5 CFU/mL
[8] = M. catarrhalis, 10 h cultivation at 37° C., 5×10^5 CFU/mL
[9] = P. mirabilis, 10 h cultivation at 37° C., 5×10^5 CFU/mL
[10] = P. vulgaris, 10 h cultivation at 37° C., 5×10^5 CFU/mL
[11] = S. marcescens, 10 h cultivation at 37° C., 5×10^5 CFU/mL
[12] = 10 h cultivation at 37° C., 5×10^5 CFU/mL, two-fold serial dilution

Substance	MIC (E. coli DH5α)	MIC (μg/mL) E. coli BL21 (E. coli BL21; [2])	MIC (μg/mL) P. aeruginosa (Pseudomonas aeruginosa; [3])	MIC (μg/mL) K. pneumonia (Klebsiella pneumonia; [4])	MIC (μg/mL) E. cloacae (Enterobacter cloacae; [5])	MIC (μg/mL) A. hydrophila (Aeromonas hydrophila; [6])	MIC (μg/mL) C. diversus (Citrobacter diversus; [7])	MIC (μg/mL) M. catarrhalis (Moraxella catarrhalis; [8])	MIC (μg/mL) P. mirabilis (Proteus mirabilis; [9])	MIC (μg/mL) P. vulgaris (Proteus vulgaris; [10])	MIC (μg/mL) S. marcescens (Serratia marcescens; [11])	other results
PRT486 (EANPCKFQACNEFSECLVNPWSGEAKCRCFPGYLSVEERPCQ; listed as Homo sapiens)	12.5 µg/mL											MIC against E. coli BL21 (E. coli BL21; [1]): 50 µg/mL; MIC against P. aeruginosa (Pseudomonas aeruginosa; [1]): 12.5 µg/mL; MIC against K. pneumonia (Klebsiella pneumonia; [1]): 50 µg/mL; MIC against E. cloacae (Enterobacter cloacae; [1]): 12.5 µg/mL; MIC against A. hydrophila (Aeromonas hydrophila; [1]): 50 µg/mL; MIC against C. diversus (Citrobacter diversus; [1]): 12.5 µg/mL; MIC against M. catarrhalis (Moraxella catarrhalis; [1]): 50 µg/mL; MIC against P. mirabilis (Proteus mirabilis; [1]): 12.5 µg/mL; MIC against P. vulgaris (Proteus vulgaris; [1]): 50 µg/mL; MIC against S. marcescens (Serratia marcescens; [1]): 25 µg/mL
PRT1040 (AAHPCVRAPCAHGGSCRPRKEGYDCDCPLGFEGLHCQ; listed as Homo sapiens)	12.5 µg/mL											MIC (E. coli BL21; E. coli BL21, 10 h cultivation at 37° C.): 50 µg/mL; MIC (Pseudomonas aeruginosa; P. aeruginosa, 10 h cultivation at 37° C.): 50 µg/mL; MIC (Klebsiella pneumonia; K. pneumonia, 10 h cultivation at 37° C.): 25 µg/mL; MIC (Enterobacter cloacae; E. cloacae, 10 h cultivation at 37° C.): 50 µg/mL; MIC (Aeromonas hydrophila; A. hydrophila, 10 h cultivation at 37° C.): 12.5 µg/mL; MIC (Citrobacter diversus; C. diversus, 10 h cultivation at 37° C.): 50 µg/mL; MIC (Moraxella catarrhalis; M. catarrhalis, 10 h cultivation at 37° C.): 25 µg/mL; MIC (Proteus mirabilis; P. mirabilis, 10 h cultivation at 37° C.): 50 µg/mL; MIC (Proteus vulgaris; P. vulgaris, 10 h cultivation at 37° C.): 25 µg/mL; MIC (Serratia marcescens; S. marcescens, 10 h cultivation at 37° C.): 50 µg/mL
PRT819 (YGHNCSQACACFNGASCDPVHGQCHCAPGWMGPSCL; listed as Homo sapiens)	12.5 µg/mL	25 µg/mL	12.5 µg/mL	12.5 µg/mL	25 µg/mL	12.5 µg/mL	25 µg/mL	50 µg/mL	12.5 µg/mL	50 µg/mL	25 µg/mL	
PRT262 (CLIHHGGCHIHAECIPTGPQQVSCSCREGYSGDGIRTC; listed as Homo sapiens)	12.5 µg/mL	25 µg/mL	50 µg/mL	25 µg/mL	12.5 µg/mL	25 µg/mL	50 µg/mL	25 µg/mL	12.5 µg/mL	25 µg/mL	12.5 µg/mL	
PRT1094 (GDNSCKSNPCHNGGVCHSRWDDFSCSCPALTSGKACE; listed as Homo sapiens)	25 µg/mL											MIC E. coli BL21 (E. coli BL21; [12]): 50 µg/mL; MIC P. aeruginosa (Pseudomonas aeruginosa; [12]): 25 µg/mL; MIC K. pneumonia (Klebsiella pneumonia; [12]): 12.5 µg/mL; MIC E. cloacae (Enterobacter cloacae; [12]): 25 µg/mL; MIC A. hydrophila (Aeromonas hydrophila; [12]): 50 µg/mL; MIC C. diversus (Citrobacter diversus; [12]): 12.5 µg/mL; MIC M. catarrhalis (Moraxella catarrhalis; [12]): 50 µg/mL; MIC P. mirabilis (Proteus mirabilis; [12]): 12.5 µg/mL; MIC P. vulgaris (Proteus vulgaris; [12]): 50 µg/mL; MIC S. marcescens (Serratia marcescens; [12]): 12.5 µg/mL
PRT173 (CSSSPCSNGAKCVDLGDAYLCRCQAGFSGRHC; listed as Homo sapiens)	12.5 µg/mL	50 µg/mL	12.5 µg/mL	50 µg/mL	25 µg/mL	12.5 µg/mL	25 µg/mL	50 µg/mL	25 µg/mL	12.5 µg/mL	25 µg/mL	
